The results in this text go back to patent US11591336B2 (Relay Therapeutics, Inc., priority 2017, dated 2023).

Counter-ions that a name gives are not always drawn. Where only a bound is given, the exact number is not on record here.

The target in this experiment is SHP2 (Homo sapiens (Human), UniProt Q06124). The experiment can be described thus: SHP2 Allosteric Inhibition Assay (DiFMUP prompt fluorescence). It counts as biochemical. The note with it: 0.25 nM SHP2 activated with 0.5 μM peptide IRS1_pY1172(dPEG8)pY1222; substrate DiFMUP 100 μM; 25° C.
Chain of SHP2 (Q06124 whole entry): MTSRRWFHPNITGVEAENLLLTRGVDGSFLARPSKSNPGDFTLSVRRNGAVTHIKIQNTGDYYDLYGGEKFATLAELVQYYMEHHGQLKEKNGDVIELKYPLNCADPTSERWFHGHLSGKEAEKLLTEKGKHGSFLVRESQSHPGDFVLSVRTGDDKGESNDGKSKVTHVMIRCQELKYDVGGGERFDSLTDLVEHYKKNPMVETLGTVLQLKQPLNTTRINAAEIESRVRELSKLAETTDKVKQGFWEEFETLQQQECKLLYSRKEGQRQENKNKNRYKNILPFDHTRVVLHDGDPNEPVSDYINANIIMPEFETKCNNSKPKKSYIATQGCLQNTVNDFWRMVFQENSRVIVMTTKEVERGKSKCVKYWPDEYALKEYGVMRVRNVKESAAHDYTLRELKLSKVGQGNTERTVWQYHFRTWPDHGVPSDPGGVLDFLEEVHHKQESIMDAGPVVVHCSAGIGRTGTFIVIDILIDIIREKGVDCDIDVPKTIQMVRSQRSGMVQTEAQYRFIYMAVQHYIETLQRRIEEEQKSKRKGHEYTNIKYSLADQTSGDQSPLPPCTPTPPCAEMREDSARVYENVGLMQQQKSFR
The term IC50 denotes the midpoint of a concentration-inhibition curve. For the molecule `NCC1(CO)CCN(c2cnc3c(N4CCCc5ncccc54)n[nH]c3n2)CC1` [Compound 82, (4-(aminomethyl)-1-(3-(3,4-dihydro-1,5-naphthyridin-1(2H)-yl)-1H-pyrazolo[3,4-b]pyrazin-6-yl)piperidin-4-yl)methanol dihydrochloride], the 50% inhibitory concentration (IC50) is less than 1000 nM. Molecule `CCCC1CCN(c2n[nH]c3nc(N4CCC(C)(CN)CC4)cnc23)c2ccccc21` (stereo not shown) [Compound 83] returned a 50% inhibitory concentration (IC50) of less than 1000 nM. Then `CCC1CCN(c2n[nH]c3nc(N4CCC(C)(CN)CC4)cnc23)c2ccccc21` (stereo not shown) [Compound 84], with less than 1000 nM; and `CCc1cccc2c1CCCN2c1n[nH]c2nc(N3CCC(C)(CN)CC3)cnc12` [Compound 85], with less than 1000 nM; and `CC1(CN)CCN(c2cnc3c(N4CCCc5c(C6CC6)cccc54)n[nH]c3n2)CC1` [Compound 86], with less than 1000 nM. Consider `CC1(CN)CCN(c2cnc3c(N4CCCc5c(C#N)cccc54)n[nH]c3n2)CC1` [Compound 87], for which the IC50 was less than 1000 nM.

On to `CC1(CN)CCN(c2cnc3c(N4CCC(C)(C)c5ccccc54)n[nH]c3n2)CC1` [Compound 88], for which the concentration for half-maximal inhibition (IC50) is less than 1000 nM. For the molecule `CC(C)C1CCN(c2n[nH]c3nc(N4CCC(C)(CN)CC4)cnc23)c2ccccc21` (stereo not shown) [Compound 89], the IC50 was less than 1000 nM. `Cc1ccnc2c1N(c1n[nH]c3nc(N4CCC(C)(CN)CC4)cnc13)CCC2` [Compound 90] yielded an IC50 of 1000 to 10000 nM. Then `CC(C)c1cccc2c1CCCN2c1n[nH]c2nc(N3CCC(C)(CN)CC3)cnc12` [Compound 91], with less than 1000 nM; and `CC1(CN)CCN(c2cnc3c(N4CCCc5cc(S(C)(=O)=O)ccc54)n[nH]c3n2)CC1` [Compound 92], with less than 1000 nM.

As for `CC1CCN(c2n[nH]c3nc(N4CCC(C)(CN)CC4)cnc23)c2ccc(C#N)cc21` (stereo not shown) [Compound 93], the IC50 was less than 1000 nM.

With `CC1(CN)CCN(c2cnc3c(N4CCC(c5ccccc5)c5ccccc54)n[nH]c3n2)CC1` (stereo not shown) [Compound 96], the half-inhibitory concentration (IC50) was less than 1000 nM. Then `CCCC1(CN)CCN(c2cnc3c(N4CCCc5ncccc54)n[nH]c3n2)CC1` [Compound 97, (1-(3-(3,4-dihydro-1,5-naphthyridin-1(2H)-yl)-1H-pyrazolo[3,4-b]pyrazin-6-yl)-4-propylpiperidin-4-yl)methanamine dihydrochloride], with less than 1000 nM; and `CCC1(CN)CCN(c2cnc3c(N4CCCc5ncccc54)n[nH]c3n2)CC1` [Compound 98, (1-(3-(3,4-dihydro-1,5-naphthyridin-1(2H)-yl)-1H-pyrazolo[3,4-b]pyrazin-6-yl)-4-ethylpiperidin-4-yl)methanamine dihydrochloride], with less than 1000 nM. For `CC1(CN)CCN(c2cnc3c(N4CCC(CO)c5ccccc54)n[nH]c3n2)CC1` (stereo not shown) [Compound 99, (1-(6-(4-(Aminomethyl)-4-methylpiperidin-1-yl)-1H-pyrazolo[3,4-b]pyrazin-3-yl)-1,2,3,4-tetrahydroquinolin-4-yl)methanol], the IC50 is less than 1000 nM.

`CNC(=O)C1CCN(c2n[nH]c3nc(N4CCC(C)(CN)CC4)cnc23)c2ccccc21` (stereo not shown) [Compound 100, 1-(6-(4-(Aminomethyl)-4-methylpiperidin-1-yl)-1H-pyrazolo[3,4-b]pyrazin-3-yl)-N-methyl-1,2,3,4-tetrahydroquinoline-4-carboxamide]: the IC50 was less than 1000 nM. Then `COC1(CN)CCN(c2cnc3c(N4CCCc5ncccc54)n[nH]c3n2)CC1` [Compound 101, (1-(3-(3,4-dihydro-1,5-naphthyridin-1(2H)-yl)-1H-pyrazolo[3,4-b]pyrazin-6-yl)-4-methoxypiperidin-4-yl)methanamine], with less than 1000 nM; and `CC1(CN)CCN(c2cnc3c(N4CCC(C(F)(F)F)c5ccccc54)n[nH]c3n2)CC1` (stereo not shown) [Compound 106], with less than 1000 nM.

In turn, `CNC(=O)c1cccc2c1CCN2c1n[nH]c2nc(N3CCC(C)(CN)CC3)cnc12` [Compound 107, 1-(6-(4-(aminomethyl)-4-methylpiperidin-1-yl)-1H-pyrazolo[3,4-b]pyrazin-3-yl)-N-methylindoline-4-carboxamide] displayed an IC50 of less than 1000 nM. `CC1(CN)CCN(c2cnc3c(N4CCc5c(C(N)=O)cccc54)n[nH]c3n2)CC1` [Compound 108, 1-(6-(4-(aminomethyl)-4-methylpiperidin-1-yl)-1H-pyrazolo[3,4-b]pyrazin-3-yl)indoline-4-carboxamide] displayed an IC50 of less than 1000 nM. The same measure for `CC1CCN(c2n[nH]c3nc(N4CCC(C)(CN)CC4)cnc23)c2ccc(C(N)=O)cc21` (stereo not shown) [Compound 112, 1-(6-(4-(aminomethyl)-4-methylpiperidin-1-yl)-1H-pyrazolo[3,4-b]pyrazin-3-yl)-4-methyl-1,2,3,4-tetrahydroquinoline-6-carboxamide formate]: less than 1000 nM; for `CNC(=O)c1ccc2c(c1)CCN2c1n[nH]c2nc(N3CCC(C)(CN)CC3)cnc12` [Compound 113, 1-(6-(4-(aminomethyl)-4-methylpiperidin-1-yl)-1H-pyrazolo[3,4-b]pyrazin-3-yl)-N-methylindoline-5-carboxamide]: less than 1000 nM; for `CC1(CN)CCN(c2cnc3c(N4CCc5cc(C(N)=O)ccc54)n[nH]c3n2)CC1` [Compound 114, 1-(6-(4-(aminomethyl)-4-methylpiperidin-1-yl)-1H-pyrazolo[3,4-b]pyrazin-3-yl)indoline-5-carboxamide]: less than 1000 nM. The same measure for `CC1(CN)CCN(c2cnc3c(N4CCC(C#N)c5ccccc54)n[nH]c3n2)CC1` (stereo not shown) [Compound 117]: less than 1000 nM. `CC1(CN)CCN(c2cnc3c(N4CCc5ccccc54)n[nH]c3n2)CC1` [Compound 118]: the IC50 was less than 1000 nM.

Take `CC1(CN)CCN(c2cnc3c(N4CCC(O)c5ccccc54)n[nH]c3n2)CC1` (stereo not shown) [Compound 119, 1-(6-(4-(aminomethyl)-4-methylpiperidin-1-yl)-1H-pyrazolo[3,4-b]pyrazin-3-yl)-1,2,3,4-tetrahydroquinolin-4-ol]: the concentration for half-maximal inhibition (IC50) is less than 1000 nM.

In turn, `Cc1c(C#N)ccc2c1CCCN2c1n[nH]c2nc(N3CCC(C)(CN)CC3)cnc12` [Compound 120] displayed an IC50 of less than 1000 nM.

In the case of `Cn1cc(-c2cccc3c2CCCN3c2n[nH]c3nc(N4CCC(C)(CN)CC4)cnc23)cn1` [Compound 121], the IC50 was less than 1000 nM. `CC1(CN)CCN(c2cnc3c(N4CCCc5c4ccc(C#N)c5C4CC4)n[nH]c3n2)CC1` [Compound 122]: the IC50 is less than 1000 nM. On to `CC1CN(c2n[nH]c3nc(N4CCC(C)(CN)CC4)cnc23)c2ccccc21` (stereo not shown) [Compound 123], for which the IC50 is less than 1000 nM. The same measure for `CC1(CN)CCN(c2cnc3c(N4CCc5ncccc54)n[nH]c3n2)CC1` [Compound 124]: less than 1000 nM; for `CC1(CN)CCN(c2cnc3c(N4CCc5cnccc54)n[nH]c3n2)CC1` [Compound 125]: 1000 to 10000 nM.

`CC1(CN)CCN(c2cnc3c(N4CCCc5nc(C#N)ccc54)n[nH]c3n2)CC1` [Compound 126]: the IC50 was less than 1000 nM. As to `CN1CCN(c2n[nH]c3nc(N4CCC(C)(CN)CC4)cnc23)c2ccccc21` [Compound 127], the half-maximal inhibitory concentration (IC50) is less than 1000 nM. Then `CC1(CN)CCN(c2cnc3c(N4CCCc5c(Cl)cccc54)n[nH]c3n2)CC1` [Compound 130], with less than 1000 nM.

In the case of `Cn1cc(-c2c(C#N)ccc3c2CCCN3c2n[nH]c3nc(N4CCC(C)(CN)CC4)cnc23)cn1` [Compound 131], the IC50 was less than 1000 nM. Then `CC1(CN)CCN(c2cnc3c(N4CCCc5c4ccnc5Cl)n[nH]c3n2)CC1` [Compound 132], with less than 1000 nM. As to `CC1(CN)CCN(c2cnc3c(N4CCc5cc(C#N)ccc54)n[nH]c3n2)CC1` [Compound 133], the IC50 is less than 1000 nM.

`C[C@H]1Cc2ccccc2N1c1n[nH]c2nc(N3CCC(C)(CN)CC3)cnc12` [Compound 134] had an IC50 of less than 1000 nM. Turning to `C[C@@H]1Cc2ccccc2N1c1n[nH]c2nc(N3CCC(C)(CN)CC3)cnc12` [Compound 135], the IC50 was less than 1000 nM. The same measure for `NS(=O)(=O)C1CCCN(c2cnc3c(N4CCCc5ncccc54)n[nH]c3n2)C1` (stereo not shown) [Compound 137]: less than 1000 nM; for `OCC1CCCCN1c1cnc2c(N3CCCc4ncccc43)n[nH]c2n1` (stereo not shown) [Compound 138]: less than 1000 nM.

With `c1ccc(CC2CCCN(c3cnc4c(N5CCCc6ncccc65)n[nH]c4n3)C2)cc1` (stereo not shown) [Compound 139], the IC50 was less than 1000 nM. In the case of `c1cncc(COC2CCN(c3cnc4c(N5CCCc6ncccc65)n[nH]c4n3)CC2)c1` [Compound 140], the IC50 was not below 10000 nM. Then `CC1(C)CCN(c2cnc3c(N4CCCc5ncccc54)n[nH]c3n2)CC1` [Compound 141], with not below 10000 nM; and `c1ccc(OC2CCCN(c3cnc4c(N5CCCc6ncccc65)n[nH]c4n3)C2)cc1` (stereo not shown) [Compound 142], with not below 10000 nM; and `OC1CCCN(c2cnc3c(N4CCCc5ncccc54)n[nH]c3n2)C1` (stereo not shown) [Compound 143], with not below 10000 nM.

Turning to `c1ccc(CC2CCCN2c2cnc3c(N4CCCc5ncccc54)n[nH]c3n2)cc1` (stereo not shown) [Compound 144], the IC50 is not below 10000 nM.

The molecule `CC1(CO)CCN(c2cnc3c(N4CCCc5ncccc54)n[nH]c3n2)CC1` [Compound 145] registered an IC50 not below 10000 nM. Molecule `c1ccc(CC2CCN(c3cnc4c(N5CCCc6ncccc65)n[nH]c4n3)C2)cc1` (stereo not shown) [Compound 146] yielded an IC50 not below 10000 nM.

On to `c1ccc(C2CCCN2c2cnc3c(N4CCCc5ncccc54)n[nH]c3n2)cc1` (stereo not shown) [Compound 147], for which the half-maximal inhibitory concentration (IC50) is not below 10000 nM. Then `CC1CCCCN1c1cnc2c(N3CCCc4ncccc43)n[nH]c2n1` (stereo not shown) [Compound 148], with not below 10000 nM; and `NC(=O)C1CCCN(c2cnc3c(N4CCCc5ncccc54)n[nH]c3n2)C1` (stereo not shown) [Compound 149], with not below 10000 nM; and `NC[C@@H]1C[C@H]2CC[C@@H](C1)N2c1cnc2c(N3CCCc4ncccc43)n[nH]c2n1` [Compound 150], with less than 1000 nM. `c1ccc(C2CCN(c3cnc4c(N5CCCc6ncccc65)n[nH]c4n3)C2)cc1` (stereo not shown) [Compound 151] registered an IC50 not below 10000 nM. On to `c1ccc(C2CCCN(c3cnc4c(N5CCCc6ncccc65)n[nH]c4n3)C2)cc1` (stereo not shown) [Compound 152], for which the IC50 was not below 10000 nM. As to `CCC1(C)CCN(c2cnc3c(N4CCCc5ncccc54)n[nH]c3n2)CC1` [Compound 153], the IC50 was not below 10000 nM.
